The results in this text go back to PubChem BioAssay (NCI).

Common to all, as to assay: NCI anticancer screen, dose series, 48 h
In assay [1] the test system is A498 renal.
The subject of assay [2] is PC-3 prostate.
Assay [3] has as its system OVCAR-5 ovarian.
For assay [4], the system named is HS 578T breast.
The subject of assay [5] is SW-620 colon.
In assay [6] the test system is NCI/ADR-RES ovarian.
Assay [7] deals with HCT-15 colon.
In assay [8] the test system is OVCAR-8 ovarian.
In assay [9] the test system is DMS 273 small cell lung.
Assay [10] deals with LXFL 529 NSCLC.

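Where inhibition never reached the appropriate level, the endpoint shown equals the highest concentration tested. Otherwise, values were interpolated linearly from a five-concentration, 48-hour dose response in 96-well plates. At the GI50, growth is halved. TGI is the concentration that stops growth completely.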 A value given as a limit tells only on which side of the number the result lay.

In the case of `CCN(CC)c1ccc(/C=C/C=C2\NC(=O)NC2=O)cc1`, the GI50 in assay [1] was 1.26 µM; in assay [2], 3.75 µM; in assay [3], 11.1 µM; in [4], 3.91 µM; in assay [5] it was 3.77 µM; in [6], 1.12 µM. Further, the GI50 in assay [7] was 2.31 µM; in [8] it was 6.21 µM. The TGI in assay [1] was 6.55 µM; in assay [2], greater than 100 µM; in assay [3], 98.4 µM; in assay [4], 42.6 µM; in assay [5] it was greater than 100 µM; in assay [6], 28.5 µM. The TGI was greater than 100 µM in assay [7] and 66.6 µM in [8].

`Oc1c(CN2CCN(c3ccccc3)CC2)cc(Br)c2cccnc12`: the TGI in [1] is greater than 100 µM; in assay [2] it was 32.5 µM; in assay [3] it was greater than 67.4 µM; in assay [4], greater than 88.6 µM; in [5], greater than 100 µM; in [6] it was greater than 100 µM. In addition, the TGI in assay [7] and in assay [8] was greater than 100 µM each time.

For the compound `O=C(/C=C\c1cccc2ccccc12)c1cccc2ccccc12`, the TGI in assay [1] was 31.7 µM; in [5] it was 10.6 µM; in assay [9], 24.7 µM; in assay [10], 13.6 µM; in assay [7], 19.6 µM; in assay [8] it was 6.01 µM. The GI50 is 2.7 µM in assay [5], 4.03 µM in assay [9], 2.9 µM in [10] and 2.61 µM in [8].

Take `C=CC1=C(C)C2=NC1=CC1=NC(=C(CC)/C1=C\O)C=C1N=C3C(=C1C)C(=O)[C@H](C(=O)OC)C3=C1NC(=C2)[C@@H](C)[C@@H]1CCC(=O)O`: the TGI in assay [1], in assay [2], in assay [3], in assay [4], in assay [5] and in assay [6] was greater than 100 µM in each case. The TGI in assay [7] and in [8] was greater than 100 µM each time.

`Cc1cc(C(=O)c2ccccc2)c(C)c2c1[nH]c1ccc(Cl)cc12`: the GI50 was 0.0305 µM in assay [1]; 0.0526 µM in assay [2]; 0.294 µM in assay [3]; 0.0501 µM in [4]; 0.0497 µM in [5]; 0.0485 µM in [6]. Moreover, the values for the GI50 in [7] and in assay [8] were 0.0492 µM and 0.148 µM, respectively. Also, the TGI in assay [1] was 0.282 µM; in assay [2] it was greater than 43.9 µM; in assay [3], 28 µM; in assay [4] it was 27.8 µM; in assay [5] it was greater than 100 µM; in [6], greater than 100 µM. In addition, the TGI was 5.1 µM in assay [7] and greater than 100 µM in [8].

On to `O=[N+]([O-])c1ccc(C=NC23CC4CC(CC(C4)C2)C3)cc1`, for which the TGI in assay [1], in [3], in assay [9], in assay [10], in assay [7] and in assay [8] was greater than 100 µM throughout.

Regarding `CC(C)(C)c1ccc(NS(=O)(=O)c2ccc3nc(NC(=O)c4cnccn4)[nH]c3c2)cc1`, the GI50 in assay [1] is 1.75 µM; in [2], 1.65 µM; in [3], 5.61 µM; in assay [4], 2.66 µM; in assay [5] it was 2.37 µM; in [6] it was 1.92 µM. The GI50 in assay [7] was 0.774 µM; in [8], 5.78 µM. Further, the TGI was 5.98 µM in assay [1]; 10.6 µM in assay [2]; 19 µM in assay [3]; 13.2 µM in [4]; 14.4 µM in assay [5]; 8.59 µM in assay [6]. For the same compound, the TGI in assay [7] was determined as 14.6 µM; in assay [8] it was 38.8 µM.

For `Cc1ccc(-c2cc(O)c(-c3ccc(C)cc3C)cc2O)c(C)c1`, the GI50 was 5.32 µM in assay [1]; 3.95 µM in assay [2]; 18 µM in [3]; 12.7 µM in assay [4]; 5.64 µM in assay [5]; 4.5 µM in assay [6]. Also, the GI50 in assay [7] was 0.54 µM; in assay [8], 4.04 µM. The TGI was found to be 18 µM in assay [1]; 57.1 µM in assay [2]; 33.5 µM in assay [3]; 61.9 µM in assay [4]; 18.5 µM in [5]; 32.9 µM in assay [6]. The TGI is 18.9 µM in assay [7] and 22.2 µM in [8].

Consider `O=C(CCc1ccc(O)cc1)N/N=C/c1cc(Br)ccc1O`, for which the GI50 was 9.81 µM in [1]; 4.14 µM in assay [2]; 6.77 µM in assay [3]; 10.1 µM in assay [4]; 3.83 µM in [5]; 2.34 µM in assay [6]. For the same compound, the GI50 was 2 µM in assay [7] and 3.7 µM in assay [8]. Also, the TGI in assay [1] is 49.6 µM; in assay [2] it was greater than 100 µM; in [3], greater than 100 µM; in assay [4], greater than 100 µM; in assay [5], greater than 100 µM; in assay [6], greater than 100 µM. Besides, the TGI in assay [7] and in assay [8] was greater than 100 µM each time.

`NC(=S)NN=C1CSSC1`: the GI50 is 1.95 µM in assay [1]; 3.57 µM in assay [2]; 5.26 µM in assay [3]; 3.49 µM in [4]; 8.06 µM in [5]; 4.11 µM in assay [6]. Also, the GI50 in assay [7] is 1.7 µM; in [8], 2.94 µM. The TGI is 6.03 µM in assay [1]; 24.5 µM in assay [2]; 40.9 µM in assay [3]; 40 µM in [4]; greater than 100 µM in assay [5]; greater than 100 µM in assay [6]. The TGI in assay [7] is 4.75 µM; in assay [8] it was 23.4 µM.

Consider `N#CC1C=Cc2c(ccc3ccccc23)N1C(=O)c1ccccc1` (configuration not stated), for which the GI50 in assay [1] is 0.139 µM; in [2], 0.333 µM; in [3], 0.519 µM; in assay [4] it was 1.31 µM; in [5] it was 0.0657 µM; in assay [6] it was 0.187 µM. The results for the GI50 in assay [7] and in assay [8] were 0.184 µM and 0.461 µM, respectively. Besides, the TGI was 2.48 µM in assay [1]; greater than 100 µM in [2]; greater than 100 µM in [3]; greater than 75.2 µM in assay [5]; greater than 100 µM in assay [7]; greater than 100 µM in assay [8].
